Drawing on the NIST ThermoML archive (doi:10.1016/j.jct.2013.12.029), this text covers mass density for 8 compounds.

Each structure is given as a SMILES string. ± gives the expanded uncertainty stated by the source.

The conditions of the first series: 293 K; 101.33 kPa; Liquid; Vibrating tube method.
As for `CCCCCC[N+]1(C)CCCCC1.O=S(=O)([N-]S(=O)(=O)C(F)(F)F)C(F)(F)F`, the mass density was 1329.5 ± 1.1 kg/m3.

The same series, now with this note: 298.15 K; 101.33 kPa; Liquid; Vibrating tube method.
`CCC[N+]1(C)CCCCC1.O=S(=O)([N-]S(=O)(=O)C(F)(F)F)C(F)(F)F`: the mass density is 1409.8 ± 1.1 kg/m3. Same read-out and setting: under `CC(C)=O` [acetone] stands 785.32 ± 1 kg/m3; under `CCCO` [propan-1-ol], 799.52 ± 1 kg/m3; under `CCCC[N+]1(C)CCCCC1.O=S(=O)([N-]S(=O)(=O)C(F)(F)F)C(F)(F)F`, 1379.2 ± 1.1 kg/m3. Same read-out and setting: under `c1ccsc1` [thiophene] stands 1058.92 ± 1 kg/m3; under `CCCCCCC` [heptane], 679.54 ± 1 kg/m3; under `c1ccc2sccc2c1` [benzo[b]thiophene], 1427 ± 1 kg/m3. The same measure, in the same setting: under `CCCCCC[N+]1(C)CCCCC1.O=S(=O)([N-]S(=O)(=O)C(F)(F)F)C(F)(F)F` stands 1325.4 ± 1.1 kg/m3.
